ChEMBL document CHEMBL3991601, “The target landscape of clinical kinase drugs” (Science, 2017)
Activity calls are given as the source filed them. For most assays here, no stated cut-off is given here; in the data, actives have a measured Kd and inactives only a lower limit.

What was measured:
[1] = target: STE20-like serine/threonine-protein kinase (Homo sapiens, UniProt Q9H2G2)
[2] = target: T1, Phenylalanine--tRNA ligase beta subunit (Homo sapiens, UniProt Q9NSD9)
T1 sequence (Q9NSD9 whole entry): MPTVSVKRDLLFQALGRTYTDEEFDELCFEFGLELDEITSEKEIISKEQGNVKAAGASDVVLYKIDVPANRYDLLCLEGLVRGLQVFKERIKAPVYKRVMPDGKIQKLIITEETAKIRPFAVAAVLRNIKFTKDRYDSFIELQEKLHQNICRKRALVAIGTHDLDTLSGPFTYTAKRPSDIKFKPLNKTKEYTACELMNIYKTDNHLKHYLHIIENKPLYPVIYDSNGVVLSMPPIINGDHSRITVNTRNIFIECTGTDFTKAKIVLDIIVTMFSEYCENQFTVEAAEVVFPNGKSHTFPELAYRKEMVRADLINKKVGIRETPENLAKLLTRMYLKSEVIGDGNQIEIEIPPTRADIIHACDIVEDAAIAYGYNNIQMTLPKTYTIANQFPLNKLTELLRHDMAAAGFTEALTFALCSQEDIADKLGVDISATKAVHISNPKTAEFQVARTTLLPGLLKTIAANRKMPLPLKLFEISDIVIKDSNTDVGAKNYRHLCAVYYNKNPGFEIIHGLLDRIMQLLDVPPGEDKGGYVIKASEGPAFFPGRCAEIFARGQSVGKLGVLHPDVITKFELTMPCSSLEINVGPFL

[3] = target: U5 small nuclear ribonucleoprotein 200 kDa helicase (Homo sapiens, UniProt O75643)
U5 small nuclear ribonucleoprotein 200 kDa helicase, sequence (O75643 whole entry): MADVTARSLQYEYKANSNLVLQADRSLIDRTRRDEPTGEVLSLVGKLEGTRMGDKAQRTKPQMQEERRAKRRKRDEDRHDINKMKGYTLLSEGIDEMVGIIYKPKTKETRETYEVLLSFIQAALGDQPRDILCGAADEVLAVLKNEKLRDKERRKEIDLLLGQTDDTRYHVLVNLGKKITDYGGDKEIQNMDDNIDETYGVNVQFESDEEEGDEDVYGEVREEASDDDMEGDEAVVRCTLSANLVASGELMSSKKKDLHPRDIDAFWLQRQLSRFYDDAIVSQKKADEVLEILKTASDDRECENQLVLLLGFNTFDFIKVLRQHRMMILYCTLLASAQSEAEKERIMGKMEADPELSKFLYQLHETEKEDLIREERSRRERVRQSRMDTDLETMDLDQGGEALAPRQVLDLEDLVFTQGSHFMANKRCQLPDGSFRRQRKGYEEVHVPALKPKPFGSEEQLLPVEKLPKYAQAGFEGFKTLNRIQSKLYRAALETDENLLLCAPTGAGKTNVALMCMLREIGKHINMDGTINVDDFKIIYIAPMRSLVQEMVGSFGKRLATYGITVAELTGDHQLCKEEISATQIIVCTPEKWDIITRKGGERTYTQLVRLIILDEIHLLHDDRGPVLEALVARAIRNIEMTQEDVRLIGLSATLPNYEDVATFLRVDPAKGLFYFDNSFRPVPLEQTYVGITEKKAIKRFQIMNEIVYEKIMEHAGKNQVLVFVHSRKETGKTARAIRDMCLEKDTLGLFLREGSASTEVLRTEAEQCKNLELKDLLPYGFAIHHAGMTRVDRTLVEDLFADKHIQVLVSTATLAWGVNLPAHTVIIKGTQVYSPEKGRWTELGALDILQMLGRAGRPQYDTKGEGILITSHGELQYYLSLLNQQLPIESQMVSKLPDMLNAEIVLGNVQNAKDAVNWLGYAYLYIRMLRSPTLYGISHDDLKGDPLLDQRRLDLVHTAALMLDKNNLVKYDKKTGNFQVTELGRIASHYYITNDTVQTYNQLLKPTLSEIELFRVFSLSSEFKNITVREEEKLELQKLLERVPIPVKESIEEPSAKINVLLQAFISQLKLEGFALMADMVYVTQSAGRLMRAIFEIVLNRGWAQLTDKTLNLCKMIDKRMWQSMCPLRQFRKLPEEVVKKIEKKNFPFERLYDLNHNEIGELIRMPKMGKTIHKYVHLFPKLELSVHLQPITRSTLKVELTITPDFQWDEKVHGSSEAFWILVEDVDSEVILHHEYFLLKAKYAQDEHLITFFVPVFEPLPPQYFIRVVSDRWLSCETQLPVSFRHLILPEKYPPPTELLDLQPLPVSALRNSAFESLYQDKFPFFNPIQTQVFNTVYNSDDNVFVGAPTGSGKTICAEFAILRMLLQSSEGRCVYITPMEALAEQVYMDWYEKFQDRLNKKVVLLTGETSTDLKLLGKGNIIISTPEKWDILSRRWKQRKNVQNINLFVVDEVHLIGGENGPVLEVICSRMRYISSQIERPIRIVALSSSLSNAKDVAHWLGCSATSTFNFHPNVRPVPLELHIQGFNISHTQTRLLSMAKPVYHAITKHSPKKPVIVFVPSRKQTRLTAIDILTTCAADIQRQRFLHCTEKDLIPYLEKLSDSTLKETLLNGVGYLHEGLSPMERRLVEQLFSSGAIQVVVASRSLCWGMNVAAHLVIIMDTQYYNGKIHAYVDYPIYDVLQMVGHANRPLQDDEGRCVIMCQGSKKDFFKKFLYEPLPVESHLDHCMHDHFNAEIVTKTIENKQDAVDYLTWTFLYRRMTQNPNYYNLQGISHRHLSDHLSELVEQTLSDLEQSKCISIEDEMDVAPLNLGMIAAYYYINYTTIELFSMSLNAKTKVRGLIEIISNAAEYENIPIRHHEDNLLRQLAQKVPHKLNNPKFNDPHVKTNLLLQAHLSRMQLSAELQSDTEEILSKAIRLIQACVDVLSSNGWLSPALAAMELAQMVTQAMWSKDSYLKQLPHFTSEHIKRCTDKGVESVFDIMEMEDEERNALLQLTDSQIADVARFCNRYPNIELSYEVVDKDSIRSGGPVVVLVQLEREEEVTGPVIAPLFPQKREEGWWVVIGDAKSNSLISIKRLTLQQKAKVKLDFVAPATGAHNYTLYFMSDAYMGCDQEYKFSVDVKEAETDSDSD

[4] = target: Mitogen-activated protein kinase 9 (Homo sapiens, UniProt P45984)
Mitogen-activated protein kinase 9, sequence (P45984 whole entry, canonical isoform): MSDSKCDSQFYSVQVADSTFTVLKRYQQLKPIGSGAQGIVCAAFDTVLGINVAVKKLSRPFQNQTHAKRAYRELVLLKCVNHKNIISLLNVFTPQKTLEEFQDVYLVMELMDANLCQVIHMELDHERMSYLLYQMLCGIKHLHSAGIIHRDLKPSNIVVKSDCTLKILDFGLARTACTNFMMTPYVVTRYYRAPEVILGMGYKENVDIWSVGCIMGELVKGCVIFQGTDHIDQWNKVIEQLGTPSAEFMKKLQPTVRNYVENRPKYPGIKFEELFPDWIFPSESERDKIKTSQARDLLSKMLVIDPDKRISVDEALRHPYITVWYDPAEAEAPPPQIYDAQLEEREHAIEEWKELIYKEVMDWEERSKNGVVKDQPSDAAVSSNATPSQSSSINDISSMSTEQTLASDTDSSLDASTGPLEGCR

[5] = target: T2, Phosphorylase b kinase gamma catalytic chain, liver/testis isoform (Homo sapiens, UniProt P15735)
T2 sequence (P15735 whole entry): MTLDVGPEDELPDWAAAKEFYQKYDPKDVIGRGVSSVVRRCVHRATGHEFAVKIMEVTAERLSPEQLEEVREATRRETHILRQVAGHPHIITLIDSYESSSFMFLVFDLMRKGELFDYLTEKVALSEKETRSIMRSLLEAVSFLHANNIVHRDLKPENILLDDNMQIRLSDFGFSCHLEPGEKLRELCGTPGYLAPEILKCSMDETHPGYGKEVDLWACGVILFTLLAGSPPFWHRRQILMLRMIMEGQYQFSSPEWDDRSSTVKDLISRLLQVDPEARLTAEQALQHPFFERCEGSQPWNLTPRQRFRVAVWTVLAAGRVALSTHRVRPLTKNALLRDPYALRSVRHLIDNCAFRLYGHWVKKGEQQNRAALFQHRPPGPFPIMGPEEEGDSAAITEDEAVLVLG

[6] = target: T3, Serine/threonine-protein kinase 4 (Homo sapiens, UniProt Q13043)
T3 sequence (Q13043 whole entry): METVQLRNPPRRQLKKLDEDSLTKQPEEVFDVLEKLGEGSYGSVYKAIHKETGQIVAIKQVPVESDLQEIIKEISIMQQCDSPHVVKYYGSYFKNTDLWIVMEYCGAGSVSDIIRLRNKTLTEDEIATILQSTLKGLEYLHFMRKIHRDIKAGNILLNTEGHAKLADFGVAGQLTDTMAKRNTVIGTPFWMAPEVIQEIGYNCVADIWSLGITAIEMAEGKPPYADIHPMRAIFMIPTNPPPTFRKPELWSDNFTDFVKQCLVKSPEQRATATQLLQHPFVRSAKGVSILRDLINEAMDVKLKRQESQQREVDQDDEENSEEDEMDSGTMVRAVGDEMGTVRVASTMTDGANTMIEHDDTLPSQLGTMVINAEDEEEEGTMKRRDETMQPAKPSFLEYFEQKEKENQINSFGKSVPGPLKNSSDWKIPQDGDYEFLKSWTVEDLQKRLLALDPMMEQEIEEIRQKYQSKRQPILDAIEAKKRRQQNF

[7] = target: T4, Serine/threonine-protein kinase TAO1 (Homo sapiens, UniProt Q7L7X3)
T4 sequence (Q7L7X3 whole entry): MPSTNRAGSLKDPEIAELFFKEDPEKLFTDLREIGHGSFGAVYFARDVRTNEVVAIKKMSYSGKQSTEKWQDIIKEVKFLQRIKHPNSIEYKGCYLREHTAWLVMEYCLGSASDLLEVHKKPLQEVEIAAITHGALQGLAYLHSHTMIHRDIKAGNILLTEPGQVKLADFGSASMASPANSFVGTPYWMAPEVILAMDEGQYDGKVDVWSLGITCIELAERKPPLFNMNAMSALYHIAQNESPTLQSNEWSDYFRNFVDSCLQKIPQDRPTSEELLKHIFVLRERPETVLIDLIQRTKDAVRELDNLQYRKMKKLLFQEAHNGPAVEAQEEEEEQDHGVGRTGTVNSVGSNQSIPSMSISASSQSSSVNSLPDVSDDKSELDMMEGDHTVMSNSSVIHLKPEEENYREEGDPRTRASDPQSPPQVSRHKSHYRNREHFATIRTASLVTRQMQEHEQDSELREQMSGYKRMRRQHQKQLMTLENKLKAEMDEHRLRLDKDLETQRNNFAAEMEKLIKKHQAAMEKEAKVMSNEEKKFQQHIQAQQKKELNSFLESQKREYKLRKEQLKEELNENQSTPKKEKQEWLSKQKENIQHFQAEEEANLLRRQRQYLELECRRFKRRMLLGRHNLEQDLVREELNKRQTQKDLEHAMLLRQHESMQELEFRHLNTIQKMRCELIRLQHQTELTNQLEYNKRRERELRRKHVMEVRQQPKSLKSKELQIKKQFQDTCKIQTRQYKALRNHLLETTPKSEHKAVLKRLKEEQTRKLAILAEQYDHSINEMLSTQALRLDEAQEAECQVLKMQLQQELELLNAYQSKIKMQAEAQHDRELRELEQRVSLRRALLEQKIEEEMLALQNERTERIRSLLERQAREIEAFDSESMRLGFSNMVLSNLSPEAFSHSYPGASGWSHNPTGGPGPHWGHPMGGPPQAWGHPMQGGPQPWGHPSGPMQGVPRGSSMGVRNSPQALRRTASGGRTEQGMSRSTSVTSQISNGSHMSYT

[8] = target: RAC-alpha serine/threonine-protein kinase (Homo sapiens, UniProt P31749)
[9] = target: Mitogen-activated protein kinase 10 (Homo sapiens, UniProt P53779)
Mitogen-activated protein kinase 10, sequence (P53779 whole entry): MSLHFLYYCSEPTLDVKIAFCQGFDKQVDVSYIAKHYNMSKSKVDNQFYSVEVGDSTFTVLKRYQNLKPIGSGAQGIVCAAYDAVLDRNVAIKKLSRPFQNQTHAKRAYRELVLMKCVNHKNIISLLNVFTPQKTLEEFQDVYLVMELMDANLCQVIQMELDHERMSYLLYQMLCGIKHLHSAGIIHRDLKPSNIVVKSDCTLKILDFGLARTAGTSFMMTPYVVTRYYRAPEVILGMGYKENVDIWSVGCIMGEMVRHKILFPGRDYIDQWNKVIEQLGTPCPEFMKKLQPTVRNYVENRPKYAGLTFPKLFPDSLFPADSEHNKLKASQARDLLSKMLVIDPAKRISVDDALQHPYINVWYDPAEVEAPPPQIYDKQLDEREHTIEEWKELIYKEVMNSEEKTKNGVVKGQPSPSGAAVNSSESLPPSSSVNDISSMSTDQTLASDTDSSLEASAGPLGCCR

[10] = target: Serine/threonine-protein kinase 10 (Homo sapiens, UniProt O94804)
Serine/threonine-protein kinase 10, sequence (O94804 whole entry): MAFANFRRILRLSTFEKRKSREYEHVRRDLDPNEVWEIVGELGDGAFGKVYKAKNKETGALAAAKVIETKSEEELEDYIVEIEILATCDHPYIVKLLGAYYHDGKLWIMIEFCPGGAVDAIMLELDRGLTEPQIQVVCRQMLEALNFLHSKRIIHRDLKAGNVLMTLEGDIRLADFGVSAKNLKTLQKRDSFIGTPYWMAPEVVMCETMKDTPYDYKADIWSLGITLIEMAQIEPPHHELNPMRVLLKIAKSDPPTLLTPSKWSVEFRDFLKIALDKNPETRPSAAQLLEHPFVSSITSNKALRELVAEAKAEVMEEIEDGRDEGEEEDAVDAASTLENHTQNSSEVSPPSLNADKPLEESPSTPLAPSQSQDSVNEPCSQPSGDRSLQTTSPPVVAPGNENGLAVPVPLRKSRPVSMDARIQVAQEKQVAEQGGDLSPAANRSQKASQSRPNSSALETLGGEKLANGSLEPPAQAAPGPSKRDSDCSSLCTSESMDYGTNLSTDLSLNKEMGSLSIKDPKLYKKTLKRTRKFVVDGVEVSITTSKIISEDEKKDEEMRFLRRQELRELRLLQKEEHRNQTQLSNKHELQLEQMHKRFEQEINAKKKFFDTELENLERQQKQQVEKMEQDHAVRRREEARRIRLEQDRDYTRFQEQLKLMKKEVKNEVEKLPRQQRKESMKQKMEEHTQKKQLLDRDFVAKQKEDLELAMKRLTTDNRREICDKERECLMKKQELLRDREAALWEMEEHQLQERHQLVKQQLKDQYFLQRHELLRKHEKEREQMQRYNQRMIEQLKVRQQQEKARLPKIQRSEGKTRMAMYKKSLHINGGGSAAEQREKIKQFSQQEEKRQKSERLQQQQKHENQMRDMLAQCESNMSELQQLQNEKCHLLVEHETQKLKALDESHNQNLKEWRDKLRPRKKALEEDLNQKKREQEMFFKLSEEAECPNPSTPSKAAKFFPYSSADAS

[11] = target: Tyrosine-protein kinase Fer (Homo sapiens, UniProt P16591)
Tyrosine-protein kinase Fer, sequence (P16591 whole entry): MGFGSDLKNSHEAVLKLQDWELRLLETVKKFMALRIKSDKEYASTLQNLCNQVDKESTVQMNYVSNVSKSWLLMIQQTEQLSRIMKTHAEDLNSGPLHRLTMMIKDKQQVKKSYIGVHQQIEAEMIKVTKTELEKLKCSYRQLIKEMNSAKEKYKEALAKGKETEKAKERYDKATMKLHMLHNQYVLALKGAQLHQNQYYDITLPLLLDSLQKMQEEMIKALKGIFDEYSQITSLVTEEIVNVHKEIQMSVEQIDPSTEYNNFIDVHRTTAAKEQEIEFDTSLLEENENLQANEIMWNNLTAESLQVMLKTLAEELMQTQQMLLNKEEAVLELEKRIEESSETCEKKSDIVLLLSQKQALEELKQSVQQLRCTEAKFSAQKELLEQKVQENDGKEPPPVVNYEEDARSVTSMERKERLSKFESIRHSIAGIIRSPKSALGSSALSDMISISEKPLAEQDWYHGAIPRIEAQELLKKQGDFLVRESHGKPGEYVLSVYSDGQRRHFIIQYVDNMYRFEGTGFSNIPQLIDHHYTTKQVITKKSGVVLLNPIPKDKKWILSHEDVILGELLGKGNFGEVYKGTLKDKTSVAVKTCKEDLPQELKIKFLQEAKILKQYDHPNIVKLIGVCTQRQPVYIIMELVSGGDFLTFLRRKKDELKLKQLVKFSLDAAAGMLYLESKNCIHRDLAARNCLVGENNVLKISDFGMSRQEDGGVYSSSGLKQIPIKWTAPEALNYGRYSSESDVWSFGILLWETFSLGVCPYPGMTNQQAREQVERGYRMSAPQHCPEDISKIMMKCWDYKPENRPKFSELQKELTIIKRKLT

[12] = target: Tyrosine-protein kinase SYK (Homo sapiens, UniProt P43405)

| Kd [1] | Kd [2] | Kd [3] | Kd [4] | Kd [5] | Kd [6] | Kd [7] | Kd [8] | Kd [9] | Kd [10] | Kd [11] | Kd [12] | Structure (SMILES) |
| --- | --- | --- | --- | --- | --- | --- | --- | --- | --- | --- | --- | --- |
| > 30 µM (inactive) | > 30 µM (inactive) | > 30 µM (inactive) | > 30 µM (inactive) | > 30 µM (inactive) | > 30 µM (inactive) | > 30 µM (inactive) | > 30 µM (inactive) | > 30 µM (inactive) | > 30 µM (inactive) | > 30 µM (inactive) | > 30 µM (inactive) | COc1cc2ncnc(Nc3ccc(F)c(Cl)c3)c2cc1NC(=O)/C=C/CN1CCCCC1 [DACOMITINIB ANHYDROUS] |
| 1.05 µM (active) | > 30 µM (inactive) | > 30 µM (inactive) | > 30 µM (inactive) | > 30 µM (inactive) | > 30 µM (inactive) | > 30 µM (inactive) | > 30 µM (inactive) | > 30 µM (inactive) | 0.227 µM (active) | > 30 µM (inactive) | > 30 µM (inactive) | C#Cc1cccc(Nc2ncnc3cc4c(cc23)OCCOCCOCCO4)c1 [ICOTINIB] |
| > 30 µM (inactive) | > 30 µM (inactive) | > 30 µM (inactive) | > 30 µM (inactive) | > 30 µM (inactive) | > 30 µM (inactive) | > 30 µM (inactive) | > 30 µM (inactive) | > 30 µM (inactive) | > 30 µM (inactive) | > 30 µM (inactive) | > 30 µM (inactive) | COc1ccc2c(OCc3nnc4ccc(-c5ccccc5)nn34)ccnc2c1 [AMG-208] |
| > 30 µM (inactive) | > 30 µM (inactive) | > 30 µM (inactive) | > 30 µM (inactive) | > 30 µM (inactive) | > 30 µM (inactive) | > 30 µM (inactive) | > 30 µM (inactive) | > 30 µM (inactive) | > 30 µM (inactive) | > 30 µM (inactive) | > 30 µM (inactive) | CNC(=O)c1cccc(-c2ccc3c(N4CCOC[C@@H]4C)nc(N4CCOC[C@@H]4C)nc3n2)c1 [VISTUSERTIB] |
| > 30 µM (inactive) | > 30 µM (inactive) | > 30 µM (inactive) | > 30 µM (inactive) | > 30 µM (inactive) | > 30 µM (inactive) | > 30 µM (inactive) | > 30 µM (inactive) | > 30 µM (inactive) | 45.1 µM (active) | > 30 µM (inactive) | > 30 µM (inactive) | COc1cc2ncnc3c2cc1OCCCCCN(C)Cc1ccc(Br)cc1N3 [JNJ-26483327] |
| > 30 µM (inactive) | > 30 µM (inactive) | > 30 µM (inactive) | > 30 µM (inactive) | > 30 µM (inactive) | > 30 µM (inactive) | > 30 µM (inactive) | > 30 µM (inactive) | > 30 µM (inactive) | > 30 µM (inactive) | > 30 µM (inactive) | > 30 µM (inactive) | COc1cc2nccc(Oc3ccc(NC(=O)C4(C(=O)Nc5ccc(F)cc5)CC4)cc3)c2cc1OC [CABOZANTINIB] |
| > 30 µM (inactive) | > 30 µM (inactive) | > 30 µM (inactive) | > 30 µM (inactive) | > 30 µM (inactive) | > 30 µM (inactive) | > 30 µM (inactive) | > 30 µM (inactive) | > 30 µM (inactive) | > 30 µM (inactive) | > 30 µM (inactive) | > 30 µM (inactive) | Cn1c(=O)c(F)c(Nc2ccc(I)cc2F)c2c(=O)n(C[C@@H](O)CO)cnc21 [TAK-733] |
| 4.37 µM (active) | > 30 µM (inactive) | > 30 µM (inactive) | > 30 µM (inactive) | > 30 µM (inactive) | > 30 µM (inactive) | > 30 µM (inactive) | > 30 µM (inactive) | > 30 µM (inactive) | 2.63 µM (active) | > 30 µM (inactive) | > 30 µM (inactive) | COc1cc2ncnc(Nc3ccc(O)cc3)c2cc1OC [WHI-P131] |

| Structure (SMILES) | Kd [1] | Kd [2] | Kd [3] | Kd [4] | Kd [5] | Kd [6] | Kd [7] | Kd [8] | Kd [9] | Kd [10] | Kd [11] | Kd [12] |
| --- | --- | --- | --- | --- | --- | --- | --- | --- | --- | --- | --- | --- |
| COCCN1CCN(Cc2ccc(-c3n[nH]c4c3C(=O)c3c(NC(=O)NN5CCOCC5)cccc3-4)cc2)CC1 [RGB-286638] | > 30 µM (inactive) | > 30 µM (inactive) | > 30 µM (inactive) | 0.37 µM (active) | > 30 µM (inactive) | > 30 µM (inactive) | > 30 µM (inactive) | > 30 µM (inactive) | 0.011 µM | > 30 µM (inactive) | > 30 µM (inactive) | > 30 µM (inactive) |
| Cc1c(Cn2c(C)nc3c(C(=O)O)cc(N4CCOCC4)cc32)cccc1C(F)(F)F [GSK-2636771] | > 30 µM (inactive) | > 30 µM (inactive) | > 30 µM (inactive) | > 30 µM (inactive) | > 30 µM (inactive) | > 30 µM (inactive) | > 30 µM (inactive) | > 30 µM (inactive) | > 30 µM (inactive) | > 30 µM (inactive) | > 30 µM (inactive) | > 30 µM (inactive) |
| NC[C@@](O)(c1ccc(Cl)cc1)c1ccc(-c2cn[nH]c2)cc1 [AT-13148] | > 30 µM (inactive) | > 30 µM (inactive) | > 30 µM (inactive) | > 30 µM (inactive) | > 30 µM (inactive) | > 30 µM (inactive) | > 30 µM (inactive) | > 30 µM (inactive) | > 30 µM (inactive) | > 30 µM (inactive) | > 30 µM (inactive) | > 30 µM (inactive) |
| C=CCN(/C=C1/C(=O)O[C@H](COC)[C@@]2(C)C1=C(O)C(=O)C1=C2[C@H](OC(C)=O)C[C@]2(C)C(=O)CC[C@@H]12)CC=C [SONOLISIB] | > 30 µM (inactive) | > 30 µM (inactive) | > 30 µM (inactive) | > 30 µM (inactive) | > 30 µM (inactive) | > 30 µM (inactive) | > 30 µM (inactive) | > 30 µM (inactive) | > 30 µM (inactive) | > 30 µM (inactive) | > 30 µM (inactive) | > 30 µM (inactive) |
